Read-outs that look alike come from different tables or passages of the source. Peptide text beside a SMILES is read from it.
How the values were obtained:
Assay type in all cases: cell-based
[1] = target: CXCR4 receptor (Homo sapiens, UniProt P61073); assay: Activity at CXCR4 receptor (selectivity, Gi-coupled GPCR); settings: FIGS. 6A-6C, selectivity vs. hAPJ
[2] = target: T1, human APJ receptor (hAPJ) (Homo sapiens, UniProt P35414); assay: HTRF cAMP assay: inhibition of NKH477-stimulated cAMP in HEK cells stably expressing hAPJ; settings: for Emax: HEK293, read-out: % IA, bound stated; for % IA (cAMP inhibition, hAPJ HEK): intrinsic activity; for Ranking: composite class of EC50 (hAPJ), % IA and % histamine or formal (+) charge; for inhibition of NKH477-stimulated increase in cAMP, dose dependent: concentration response curves, FIGS. 1 and 2, HEK cells stably expressing APJ
T1 construct: expressed in transfected cells
T1 sequence (P35414 1-380): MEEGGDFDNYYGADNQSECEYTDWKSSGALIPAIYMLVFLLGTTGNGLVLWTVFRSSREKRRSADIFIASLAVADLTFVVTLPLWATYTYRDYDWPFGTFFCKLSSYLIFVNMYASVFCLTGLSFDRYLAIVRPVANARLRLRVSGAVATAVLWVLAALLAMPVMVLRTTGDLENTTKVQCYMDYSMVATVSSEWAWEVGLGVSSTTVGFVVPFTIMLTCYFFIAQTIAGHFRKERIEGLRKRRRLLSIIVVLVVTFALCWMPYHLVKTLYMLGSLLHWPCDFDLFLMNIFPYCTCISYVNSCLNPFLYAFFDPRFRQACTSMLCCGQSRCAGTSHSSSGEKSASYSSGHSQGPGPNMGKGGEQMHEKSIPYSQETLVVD
Outline: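 HEK cells stably expressing hAPJ, induced with 1 nG/mL doxycycline and seeded overnight at 40 k/well. cAMP read by HTRF competitive immunoassay using cryptate-labeled anti-cAMP antibody and d2-labeled cAMP.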

[3] = target: T2, APJ receptor (Homo sapiens, UniProt P35414); assay: Cellul'erk ERK phosphorylation assay in APJ-TREX cells; design: expressed in transfected cells; host or cells: Human TRex (APJ-TREX) cells, doxycycline-inducible expression; settings: relative to max pyr-apelin-13 activity at 100 nM; 3 or 0.3 μM compound, 5 minutes
T2 sequence (P35414 1-380): T1 sequence (P35414 1-380)
Description: Experiments were performed to test activation of the ERK and p38 pathways using the Cellul'erk and the Phospho-p38 MAPK (Thr180/Tyr182) assay kits (Cisbio). APJ-TREX cells were optimized for signaling (pre-serum starved overnight with low FBS serum (2% FBS media) with 1 ng/ml doxycyclin (for induction of APJ receptor expression), 50,000 cells, 5 minutes agonist activation for ERK activity). Cells were pretreated with 3 or 0.3 μM pepducin compound for 5 minutes and the reaction was stopped by lysis buffer. Lysates are then transferred to the assay plate for the detection of phosphorylated ERK or p38 by HTRF reagents.

[4] = target: T2, APJ receptor; assay: DiscoveRx PathHunter β-arrestin recruitment assay; settings: for β-arrestin recruitment: dose dependent chemiluminescence, FIGS. 3A-3B; for Emax: read-out: β-arrestin Signaling Max Response
From the text: Activation of the β-Arrestin signaling pathway was monitored using the commercially available DiscoveRx PathHunter® assay. This assay employs a homogenous, non-imaging assay format called Enzyme Fragment Complementation (EFC) using β-galactosidase (β-Gal) as the functional reporter. […] EA is fused to β-Arrestin and ED is fused to the GPCR of interest. When the GPCR is activated and β-Arrestin is recruited to the receptor, ED and EA complementation occurs, restoring βGal activity which is measured using chemiluminescent PathHunter® Detection Reagent.

[5] = tested on: rat peritoneal cells; assay: Ex vivo histamine release assay in rat peritoneal cells (vs. Compound 48/80)
Outline: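 Resident peritoneal cells were lavaged from male Sprague Dawley rats and kept in HBSS/20 mM HEPES/0.2% BSA at 25,000 cells/well. They were exposed for 30 min at room temperature to compound at 3 points (100, 10, 1 μM DMSO stocks, 1% DMSO final). Released histamine was measured by HTRF and normalised to total histamine after Triton lysis. Compound 48/80 was the reference.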

[6] = HTRF cAMP Assay, per data of Table 6
[7] = HTRF cAMP Assay, per data of Table 6, read-out: EC50 (hAPJ), inhibition of cAMP production, bound stated
[8] = Table 6, hAPJ HEK cells, NKH477-stimulated cAMP, read-out: EC50 (cAMP inhibition, hAPJ HEK)
[9] = histamine release from rat peritoneal cells relative to Compound 48/80
[10] = EC50 (cAMP inhibition, hAPJ HEK), Table 6, hAPJ HEK cells, NKH477-stimulated cAMP
[11] = EC50 (hAPJ), inhibition of cAMP production, bound stated, HTRF cAMP Assay, per data of Table 6

CXCR4 receptor, sequence (P61073 whole entry): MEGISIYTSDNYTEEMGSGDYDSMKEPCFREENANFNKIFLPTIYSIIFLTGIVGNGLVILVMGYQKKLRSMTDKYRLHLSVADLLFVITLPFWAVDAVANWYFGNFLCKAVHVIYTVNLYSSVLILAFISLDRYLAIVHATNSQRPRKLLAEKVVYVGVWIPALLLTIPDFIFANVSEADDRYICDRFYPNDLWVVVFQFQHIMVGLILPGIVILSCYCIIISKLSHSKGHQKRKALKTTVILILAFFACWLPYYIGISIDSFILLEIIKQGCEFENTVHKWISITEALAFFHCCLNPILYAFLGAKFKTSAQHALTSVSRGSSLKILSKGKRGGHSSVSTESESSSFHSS

| Structure (SMILES) | activity at the CXCR4 receptor [1] | Emax [2, 6] | EC50 [2, 7] | EC50 [2, 8] | % IA (cAMP inhibition, hAPJ HEK) ([2]; Table 6, hAPJ HEK cells) | Ranking [2] | inhibition of NKH477-stimulated increase in cAMP, dose dependent [2] | Average % Activity (ERK agonist activity) [3] | EC50 [4] | β-arrestin recruitment [4] | Emax [4] | Histamine (% vs. 48/80) [5, 9] | EC50 [2, 10] | EC50 [2, 11] | EC50 ([4]; PathHunter chemiluminescence, read-out: β-arrestin Signaling EC50) | Histamine (% vs. 48/80) [5] |
| --- | --- | --- | --- | --- | --- | --- | --- | --- | --- | --- | --- | --- | --- | --- | --- | --- |
| CCCCCCCCCCCCCCCC(=O)N[C@H](C(=O)N[C@H](C(=O)N[C@@H](Cc1ccccc1)C(=O)N[C@@H](CCCNC(=N)N)C(=O)N[C@@H](CO)C(=O)N[C@@H](CO)C(=O)N[C@@H](CCC(=O)O)C(=O)N[C@H](CCCCN)C(=O)N[C@@H](CCCNC(=N)N)C(=O)N[C@@H](CCCNC(=N)N)C(=O)N[C@@H](CO)C(=O)N[C@@H](C)C(=O)N[C@@H](CC(=O)O)C(=O)N[C@@H](CC(N)=O)C(=O)N[C@@H](Cc1ccccc1)C(=O)N[C@H](C(N)=O)[C@@H](C)CC)C(C)C)[C@@H](C)O [Compound 18] (HELM PEPTIDE1{[CCCCCCCCCCCCCCCC(=O)[*:2]].T.V.F.R.S.S.E.[dK].R.R.S.A.D.N.F.I.[am]}$$$$V2.0) | lack of dose-responsive activity | ≥ 80% | ≤ 25 nM | 15 nM | 117% | **** (EC50≦25 nM (hAPJ), % IA≧80% and either % histamine>35% or formal (+) charge>1) | inhibited |  |  |  |  |  |  |  |  |  |
| CCCCCCCCCCCCCCCC(=O)N[C@H](C(=O)N[C@H](C(=O)N[C@@H](Cc1ccccc1)C(=O)N[C@@H](CCCNC(=N)N)C(=O)N[C@@H](CO)C(=O)N[C@@H](CO)C(=O)N[C@@H](CCC(=O)O)C(=O)N1CCC[C@H]1C(=O)N[C@H](CCCCN)C(=O)N[C@@H](CCCNC(=N)N)C(=O)N[C@@H](CCCNC(=N)N)C(=O)N[C@@H](CO)C(=O)N[C@@H](C)C(=O)N[C@@H](CC(=O)O)C(=O)N[C@H](C(=O)N[C@@H](Cc1ccccc1)C(=O)N1CCC[C@H]1C(N)=O)[C@@H](C)CC)C(C)C)[C@@H](C)O [Compound 28] (HELM PEPTIDE1{[CCCCCCCCCCCCCCCC(=O)[*:2]].T.V.F.R.S.S.E.P.[dK].R.R.S.A.D.I.F.P.[am]}$$$$V2.0) | lack of dose-responsive activity | ≥ 80% | ≤ 25 nM | 17 nM | 99% | **** (EC50≦25 nM (hAPJ), % IA≧80% and either % histamine>35% or formal (+) charge>1) |  | 34.7% |  |  |  |  |  |  |  |  |
| CCCCCCCCCCCCCCCC(=O)N[C@H](C(=O)N[C@H](C(=O)N[C@@H](Cc1ccccc1)C(=O)N[C@@H](CCCNC(=N)N)C(=O)N[C@@H](CO)C(=O)N[C@@H](CO)C(=O)N1CCC[C@H]1C(=O)N[C@@H](CCC(=O)O)C(=O)N[C@H](CCCCN)C(=O)N[C@@H](CCCNC(=N)N)C(=O)N[C@@H](CCCNC(=N)N)C(=O)N[C@@H](CO)C(=O)N[C@@H](C)C(=O)N[C@@H](CC(=O)O)C(=O)N[C@H](C(=O)N[C@@H](Cc1ccccc1)C(=O)N[C@H](C(N)=O)[C@@H](C)CC)[C@@H](C)CC)C(C)C)[C@@H](C)O [Compound 25] (HELM PEPTIDE1{[CCCCCCCCCCCCCCCC(=O)[*:2]].T.V.F.R.S.S.P.E.[dK].R.R.S.A.D.I.F.I.[am]}$$$$V2.0) |  | ≥ 80% |  |  | 138% | **** (EC50≦25 nM (hAPJ), % IA≧80% and either % histamine>35% or formal (+) charge>1) | inhibited | 25.5% | 3.1 nM | weakly engaged | 12.6% | 51% | 15 nM | ≤ 25 nM |  |  |
| CCCCCCCCCCCCCCCC(=O)N1CCC[C@H]1C(=O)N[C@H](C(=O)N[C@H](C(=O)N[C@@H](Cc1ccccc1)C(=O)N[C@@H](CCCNC(=N)N)C(=O)N[C@@H](CO)C(=O)N1CCC[C@H]1C(=O)N[C@@H](CO)C(=O)N[C@@H](CCC(=O)O)C(=O)N[C@H](CCCCN)C(=O)N[C@@H](CCCNC(=N)N)C(=O)N[C@@H](CCCNC(=N)N)C(=O)N[C@@H](CO)C(=O)N[C@@H](C)C(=O)N[C@@H](CC(=O)O)C(=O)N[C@H](C(=O)N[C@@H](Cc1ccccc1)C(=O)N[C@H](C(N)=O)[C@@H](C)CC)[C@@H](C)CC)C(C)C)[C@@H](C)O [Compound 3] (HELM PEPTIDE1{[CCCCCCCCCCCCCCCC(=O)[*:2]].P.T.V.F.R.S.P.S.E.[dK].R.R.S.A.D.I.F.I.[am]}$$$$V2.0) |  | ≥ 80% |  |  | 90% | **** (EC50≦25 nM (hAPJ), % IA≧80% and either % histamine>35% or formal (+) charge>1) |  |  | 8.2 nM | weakly engaged | 11% | 64% | 13 nM | ≤ 25 nM |  |  |
| CCCCCCCCCCCCCCCC(=O)N[C@H](C(=O)N[C@H](C(=O)N[C@@H](Cc1ccccc1)C(=O)N[C@@H](CCCNC(=N)N)C(=O)N[C@@H](CO)C(=O)N[C@@H](CO)C(=O)N[C@@H](CCC(=O)O)C(=O)N1CCC[C@H]1C(=O)N[C@H](CCCCN)C(=O)N[C@@H](CCCNC(=N)N)C(=O)N[C@@H](CCCNC(=N)N)C(=O)N[C@@H](CO)C(=O)N[C@@H](C)C(=O)N[C@@H](CC(=O)O)C(=O)N[C@H](C(=O)N[C@@H](Cc1ccccc1)C(=O)N[C@H](C(N)=O)[C@@H](C)CC)[C@@H](C)CC)C(C)C)[C@@H](C)O [Compound 27] (HELM PEPTIDE1{[CCCCCCCCCCCCCCCC(=O)[*:2]].T.V.F.R.S.S.E.P.[dK].R.R.S.A.D.I.F.I.[am]}$$$$V2.0) |  | ≥ 80% |  |  | 105% | **** (EC50≦25 nM (hAPJ), % IA≧80% and either % histamine>35% or formal (+) charge>1) | inhibited |  | 8.1 nM | weakly engaged | 23.7% | 67% | 7 nM | ≤ 25 nM |  |  |
| CCCCCCCCCCCCCCCC(=O)N[C@H](C(=O)N[C@H](C(=O)N[C@@H](Cc1ccccc1)C(=O)N[C@@H](CCCNC(=N)N)C(=O)N[C@@H](CO)C(=O)N[C@@H](CCC(=O)O)C(=O)N[C@H](CCCCN)C(=O)N[C@@H](CCCNC(=N)N)C(=O)N[C@@H](CCCNC(=N)N)C(=O)N[C@@H](CO)C(=O)N[C@@H](C)C(=O)N[C@@H](CC(=O)O)C(=O)N[C@@H](CCC(N)=O)C(=O)N[C@@H](Cc1ccccc1)C(=O)N[C@H](C(N)=O)[C@@H](C)CC)C(C)C)[C@@H](C)O [Compound 14] (HELM PEPTIDE1{[CCCCCCCCCCCCCCCC(=O)[*:2]].T.V.F.R.S.E.[dK].R.R.S.A.D.Q.F.I.[am]}$$$$V2.0) | lack of dose-responsive activity | ≥ 80% | ≤ 25 nM | 8 nM | 87% | **** (EC50≦25 nM (hAPJ), % IA≧80% and either % histamine>35% or formal (+) charge>1) | inhibited | 58.2% |  |  |  |  |  |  |  |  |
| CCCCCCCCCCCCCCCC(=O)N[C@H](C(=O)N[C@H](C(=O)N[C@@H](Cc1ccccc1)C(=O)N[C@@H](CCCNC(=N)N)C(=O)N[C@@H](CO)C(=O)N[C@@H](CO)C(=O)N1CCC[C@H]1C(=O)N[C@@H](CCC(=O)O)C(=O)N[C@H](CCCCN)C(=O)N[C@@H](CCCNC(=N)N)C(=O)N[C@@H](CCCNC(=N)N)C(=O)N[C@@H](CO)C(=O)N[C@@H](C)C(=O)N[C@@H](CC(=O)O)C(=O)N[C@H](C(=O)N[C@@H](Cc1ccccc1)C(=O)N1CCC[C@H]1C(N)=O)[C@@H](C)CC)C(C)C)[C@@H](C)O [Compound 26] (HELM PEPTIDE1{[CCCCCCCCCCCCCCCC(=O)[*:2]].T.V.F.R.S.S.P.E.[dK].R.R.S.A.D.I.F.P.[am]}$$$$V2.0) |  | ≥ 80% | ≤ 25 nM | 11 nM | 105% | **** (EC50≦25 nM (hAPJ), % IA≧80% and either % histamine>35% or formal (+) charge>1) | inhibited |  |  | weakly engaged | 46% |  |  |  | 59.6 nM | 73% |

— patent publication US20160159861A1, “APJ Receptor Compounds” (priority 2013, published 2016)
